Reference: PMC8162746 (Cancer chemotherapy and pharmacology, 2021)
“And” between values parts separate entries of the source, which are not always exact repeats. Equal values may be shown once.

Test system: patients with primary CNS and advanced solid tumors
Assay: Phase I dose-escalation trial of oral AR-42: safety and tolerability
Format: in vivo

With `CC(C)[C@H](C(=O)Nc1ccc(C(=O)NO)cc1)c1ccccc1` [AR-42] the “Headache, treatment-related adverse event, Grade 1–2” value (N=17, 30-80 mg) was 3 (17.6%) n (%), the “Hematuria, treatment-related adverse event, All grades” value (N=17, 30-80 mg) was 1 (5.9%) n (%) and the “Hematuria, treatment-related adverse event, Grade 3–4” value (N=17, 30-80 mg) was 1 (5.9%) n (%). For the same molecule, the “Hypermagnesemia, treatment-related adverse event, All grades” value (N=17, 30-80 mg) was 2 (11.8%) n (%), the “Hypermagnesemia, treatment-related adverse event, Grade 1–2” value (N=17, 30-80 mg) was 2 (11.8%) n (%) and the “Hypernatremia, treatment-related adverse event, All grades” value (N=17, 30-80 mg) was 2 (11.8%) n (%). The “Hypernatremia, treatment-related adverse event, Grade 1–2” value (N=17, 30-80 mg) was 2 (11.8%) n (%), the “Hypersomnia, treatment-related adverse event, All grades” value (N=17, 30-80 mg) was 2 (11.8%) n (%) and the “Hypersomnia, treatment-related adverse event, Grade 1–2” value (N=17, 30-80 mg) was 2 (11.8%) n (%). For the same molecule, the “Hypoalbuminemia, treatment-related adverse event, All grades” value (N=17, 30-80 mg) was 5 (29.4%) n (%), the “Hypoalbuminemia, treatment-related adverse event, Grade 1–2” value (N=17, 30-80 mg) was 5 (29.4%) n (%) and the “Hyponatremia, treatment-related adverse event, All grades” value (N=17, 30-80 mg) was 3 (17.6%) n (%). The “Hyponatremia, treatment-related adverse event, Grade 1–2” value (N=17, 30-80 mg) was 3 (17.6%) n (%), the “Hypophosphatemia, treatment-related adverse event, All grades” value (N=17, 30-80 mg) was 7 n (%) and 7 (41.2%) n (%) and the “Hypophosphatemia, treatment-related adverse event, Grade 1–2” value (N=17, 30-80 mg) was 4 (23.5%) n (%). For the same molecule, the “Hypophosphatemia, treatment-related adverse event, Grade 3–4” value (N=17, 30-80 mg) was 3 (17.6%) n (%), the “Impaired concentration, treatment-related adverse event, All grades” value (N=17, 30-80 mg) was 3 (17.6%) n (%) and the “Impaired concentration, treatment-related adverse event, Grade 1–2” value (N=17, 30-80 mg) was 3 (17.6%) n (%). For the same molecule, the “Leukopenia, treatment-related adverse event, All grades” value (N=17, 30-80 mg) was 8 n (%) and 8 (47.1%) n (%), the “Leukopenia, treatment-related adverse event, Grade 1–2” value (N=17, 30-80 mg) was 8 (47.1%) n (%) and the “Limb edema, treatment-related adverse event, All grades” value (N=17, 30-80 mg) was 2 (11.8%) n (%). For the same molecule, the “Limb edema, treatment-related adverse event, Grade 1–2” value (N=17, 30-80 mg) was 2 (11.8%) n (%), the “Lymphopenia, treatment-related adverse event, All grades” value (N=17, 30-80 mg) was 7 n (%) and 7 (41.2%) n (%) and the “Lymphopenia, treatment-related adverse event, Grade 1–2” value (N=17, 30-80 mg) was 4 (23.5%) n (%). For the same molecule, the “Lymphopenia, treatment-related adverse event, Grade 3–4” value (N=17, 30-80 mg) was 3 (17.6%) n (%), the “Myalgia, treatment-related adverse event, All grades” value (N=17, 30-80 mg) was 4 (23.5%) n (%) and the “Myalgia, treatment-related adverse event, Grade 1–2” value (N=17, 30-80 mg) was 4 (23.5%) n (%). The “Nausea, treatment-related adverse event, All grades” value (N=17, 30-80 mg) was 10 n (%) and 10 (58.8%) n (%), the “Nausea, treatment-related adverse event, Grade 1–2” value (N=17, 30-80 mg) was 8 (47.1%) n (%) and the “Nausea, treatment-related adverse event, Grade 3–4” value (N=17, 30-80 mg) was 2 (11.8%) n (%). For the same molecule, the “Neutropenia, treatment-related adverse event, All grades” value (N=17, 30-80 mg) was 7 n (%) and 7 (41.2%) n (%), the “Neutropenia, treatment-related adverse event, Grade 1–2” value (N=17, 30-80 mg) was 7 (41.2%) n (%) and the “Psychiatric disorder, treatment-related adverse event, All grades” value (N=17, 30-80 mg) was 1 (5.9%) n (%). For the same molecule, the “Psychiatric disorder, treatment-related adverse event, Grade 3–4” value (N=17, 30-80 mg) was 1 (5.9%) n (%), the “Thrombocytopenia, treatment-related adverse event, All grades” value (N=17, 30-80 mg) was 13 (76.5%) n (%) and the “Thrombocytopenia, treatment-related adverse event, Grade 1–2” value (N=17, 30-80 mg) was 8 (47.1%) n (%). For the same molecule, the “Thrombocytopenia, treatment-related adverse event, Grade 3–4” value (N=17, 30-80 mg) was 5 (29.4%) n (%), the “Thromboembolic event, treatment-related adverse event, All grades” value (N=17, 30-80 mg) was 1 (5.9%) n (%) and the “Thromboembolic event, treatment-related adverse event, Grade 3–4” value (N=17, 30-80 mg) was 1 (5.9%) n (%). The “Vomiting, treatment-related adverse event, All grades” value (N=17, 30-80 mg) was 4 (23.5%) n (%), the “Vomiting, treatment-related adverse event, Grade 1–2” value (N=17, 30-80 mg) was 4 (23.5%) n (%) and the “Weight loss, treatment-related adverse event, All grades” value (N=17, 30-80 mg) was 3 (17.6%) n (%). The “Weight loss, treatment-related adverse event, Grade 1–2” value (N=17, 30-80 mg) was 2 (11.8%) n (%), the “Weight loss, treatment-related adverse event, Grade 3–4” value (N=17, 30-80 mg) was 1 (5.9%) n (%) and the “Only grade 4 TRAE” value (at the 80 mg dose) was “psychosis”. For the same molecule, the “No. of dose delays” value (dose level 1A, 30 mg) was 0, the “No. of dose reductions” value (dose level 1A, 30 mg) was 0 and the “Description of DLT” value (dose level 1B, 60 mg) was “Thrombocytopenia (grade 3)”. The “No. of dose delays” value (dose level 1B, 60 mg) was 4, the “No. of dose reductions” value (dose level 1B, 60 mg) was 2 and the “No. of patients with a DLT” value (dose level 1B, 60 mg, 7 patients) was 1. For the same molecule, the “No. of dose delays” value (dose level 2A, 60 mg) was 0, the “No. of dose reductions” value (dose level 2A, 60 mg) was 0 and the “No. of patients with a DLT” value (dose level 2A, 60 mg, 2 patients) was 0. The “No. of dose delays” value (dose level 2B, 80 mg) was 0, the “No. of dose reductions” value (dose level 2B, 80 mg) was 0 and the “No. of patients with a DLT” value (dose level 2B, 80 mg, 2 patients) was 1. For the same molecule, the “Patients who developed a grade 4 toxicity” value (during cycle one, N=17) was 5.9%, the “Patients who developed at most a grade 1 toxicity” value (during cycle one, N=17) was 23.5% and the “Patients who developed at most a grade 2 toxicity” value (during cycle one, N=17) was 29.4%. For the same molecule, the “Patients who developed at most a grade 3 toxicity” value (during cycle one, N=17) was 29.4%, the “Patients who experienced no toxicities” value (during cycle one, N=17) was 11.8% and the “No. of dose delays” value (expansion cohort, 60 mg) was 0. The “No. of dose reductions” value (expansion cohort, 60 mg) was 0, the “Grade 4 thrombocytopenia” value (in vivo) was “no grade 4 thrombocytopenia” and the “Recommended phase II dose (RP2D)” value (oral, three times weekly, three weeks of a 28-day cycle) was 60 mg. The “Clinically significant bleeding events” value (with thrombocytopenia) was “no clinically significant bleeding events”.
